According to ChEMBL document CHEMBL4321834, “Glechomanamides A-C, Germacrane Sesquiterpenoids with an Unusual Δ8-7,12-Lactam Moiety from Salvia scapiformis and Their Antiangiogenic Activity” (J Nat Prod, 2019):
The source made the active and inactive calls.

Assays:
[1] = tested on: HUVEC; test: Decrease in GLUT1 expression in HUVEC at 1 to 100 uM preincubated for 30 mins followed by incubation with VEGF for 20 mins by Western blot analysis; assay type: functional, cell-based; settings: Homo sapiens
[2] = target: Vascular endothelial growth factor receptor 2 (Homo sapiens) (UniProt P35968); test: Inhibition of VEGF-induced VEGFR2 phosphorylation in HUVEC at 1 to 100 uM preincubated for 30 mins followed by stimulation with VEGF for 20 mins by Western blot analysis; assay type: cell-based
Chain of Vascular endothelial growth factor receptor 2 (Homo sapiens) (P35968 whole entry): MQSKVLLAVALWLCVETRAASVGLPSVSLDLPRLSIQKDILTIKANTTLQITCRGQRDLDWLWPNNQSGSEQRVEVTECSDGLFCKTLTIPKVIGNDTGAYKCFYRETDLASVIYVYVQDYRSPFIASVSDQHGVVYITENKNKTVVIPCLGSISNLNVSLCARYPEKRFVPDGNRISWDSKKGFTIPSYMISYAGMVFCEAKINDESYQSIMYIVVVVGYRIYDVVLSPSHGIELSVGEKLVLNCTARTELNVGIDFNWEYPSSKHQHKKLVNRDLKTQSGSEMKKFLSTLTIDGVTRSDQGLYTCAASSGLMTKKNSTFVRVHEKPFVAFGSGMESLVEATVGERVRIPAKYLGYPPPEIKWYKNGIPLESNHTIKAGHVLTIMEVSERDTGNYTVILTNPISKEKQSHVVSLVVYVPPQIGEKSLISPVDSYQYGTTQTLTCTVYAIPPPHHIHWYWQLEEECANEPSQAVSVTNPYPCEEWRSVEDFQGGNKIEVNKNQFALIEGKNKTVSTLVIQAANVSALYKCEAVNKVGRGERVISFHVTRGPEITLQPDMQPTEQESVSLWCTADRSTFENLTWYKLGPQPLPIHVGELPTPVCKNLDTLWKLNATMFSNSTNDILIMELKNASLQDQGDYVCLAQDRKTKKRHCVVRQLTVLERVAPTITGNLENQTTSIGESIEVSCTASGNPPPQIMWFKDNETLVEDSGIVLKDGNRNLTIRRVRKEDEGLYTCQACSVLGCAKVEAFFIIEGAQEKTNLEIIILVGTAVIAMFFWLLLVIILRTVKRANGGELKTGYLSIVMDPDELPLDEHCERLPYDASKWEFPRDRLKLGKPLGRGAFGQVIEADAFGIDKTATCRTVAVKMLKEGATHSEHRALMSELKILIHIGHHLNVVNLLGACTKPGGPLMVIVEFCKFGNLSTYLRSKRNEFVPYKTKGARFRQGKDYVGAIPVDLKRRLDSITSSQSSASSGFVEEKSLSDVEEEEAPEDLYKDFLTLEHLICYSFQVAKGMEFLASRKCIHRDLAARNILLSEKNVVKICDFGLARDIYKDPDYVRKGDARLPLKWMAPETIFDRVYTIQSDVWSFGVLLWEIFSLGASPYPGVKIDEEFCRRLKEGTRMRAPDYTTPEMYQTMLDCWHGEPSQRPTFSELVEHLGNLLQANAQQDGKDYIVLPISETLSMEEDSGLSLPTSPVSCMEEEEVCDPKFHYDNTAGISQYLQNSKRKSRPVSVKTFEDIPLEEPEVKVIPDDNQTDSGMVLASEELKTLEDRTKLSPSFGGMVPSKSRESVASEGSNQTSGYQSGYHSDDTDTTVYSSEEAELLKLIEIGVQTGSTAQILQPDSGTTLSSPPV

[3] = tested on: HUVEC; test: Decrease in HK2 expression in HUVEC at 1 to 100 uM preincubated for 30 mins followed by incubation with VEGF for 20 mins by Western blot analysis; assay type: functional, cell-based; settings: Homo sapiens
[4] = target: Vascular endothelial growth factor receptor 2 (Homo sapiens) (UniProt P35968); test: Inhibition of VEGFR2 in HUVEC assessed as inhibition of VEGF-induced tube formation incubated for 8 hrs by inverted microscopic method; assay type: cell-based
[5] = tested on: HUVEC; test: Decrease in total VEGF expression in HUVEC at 1 to 100 uM preincubated for 30 mins followed by incubation with VEGF for 20 mins by Western blot analysis; assay type: functional, cell-based; settings: Homo sapiens
[6] = target: Vascular endothelial growth factor receptor 2 (Homo sapiens) (UniProt P35968); test: Inhibition of VEGFR2 in HUVEC assessed as inhibition of VEGF-induced tube formation at 80 uM incubated for 8 hrs by inverted microscopic method; assay type: cell-based
[7] = tested on: HUVEC; test: Decrease in D-glucose-induced BMP4 mRNA expression in HUVEC at 10 uM incubated for 48 hrs in presence of […] by real time-PCR analysis; assay type: functional, cell-based; settings: Homo sapiens
[8] = tested on: HUVEC; test: Decrease in BMP4 expression in HUVEC at 1 to 100 uM preincubated for 30 mins followed by incubation with VEGF for 20 mins by Western blot analysis; assay type: functional, cell-based; settings: Homo sapiens
[9] = tested on: HUVEC; test: Decrease in D-glucose-induced ANGPT2 mRNA expression in HUVEC at 10 uM incubated for 48 hrs in presence of […] by real time-PCR analysis; assay type: functional, cell-based; settings: Homo sapiens
[10] = tested on: HUVEC; test: Decrease in D-glucose-induced BMP4 mRNA expression in HUVEC at 500 uM incubated for 48 hrs in presence of […] by real time-PCR analysis; assay type: functional, cell-based; settings: Homo sapiens
[11] = tested on: HUVEC; test: Decrease in D-glucose-induced ANGPT2 mRNA expression in HUVEC at 500 uM incubated for 48 hrs in presence of […] by real time-PCR analysis; assay type: functional, cell-based; settings: Homo sapiens

Measured: inhibition

C/C=C(\C)C(=O)O[C@@H]1C2=C(C)C(=O)N[C@]2(O)C[C@@]2(C)O[C@@H]2CC[C@@]2(C)O[C@H]12
active: [1] | [2] | [3] | [4] Dose-dependent effect | [5] | [6] | [7] | [8] | [9]

CN(C)C(=N)NC(=N)N
active: [10] | [11]
